Reference: ChEMBL document CHEMBL1201862, “PubChem BioAssay data set” (2004)
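Growth conditions: 96-well plates. Treatment: test compound, 48 hours, 5 concentrations. Analysis: linear interpolation between bracketing concentrations; unreached endpoints set to highest concentration. GI50 = concentration required for 50% inhibition of growth.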 Active and inactive are the calls of the source. Cut-off read from the data, not from the text of the source: active = GI50 up to about 1.1 µM and inactive = higher.

How the values were obtained:
Experiment in all cases: NCI-60 cell line screen, 48 h
M19-MEL = system: M19-MEL
M14 = system: M14
LXFL 529 = system: LXFL 529
A549 = system: A549
HOP-62 = system: HOP-62
SF-295 = system: SF-295
TK-10 = system: TK-10
ACHN = system: ACHN
UACC-62 = system: UACC-62
SR = system: SR
KM12 = system: KM12
DMS-273 = system: DMS-273
SNB-19 = system: SNB-19
COLO 205 = system: COLO 205
CAKI-1 = system: CAKI-1
DMS-114 = system: DMS-114
MCF7 = system: MCF7
NCI/ADR-RES = system: NCI/ADR-RES
HOP-18 = system: HOP-18
PC-3 = system: PC-3

Row | SMILES | GI50 (M19-MEL) | GI50 (M14) | GI50 (LXFL 529) | GI50 (A549) | GI50 (HOP-62) | GI50 (SF-295) | GI50 (TK-10) | GI50 (ACHN) | GI50 (UACC-62) | GI50 (SR) | GI50 (KM12) | GI50 (DMS-273) | GI50 (SNB-19) | GI50 (COLO 205) | GI50 (CAKI-1) | GI50 (DMS-114) | GI50 (MCF7) | GI50 (NCI/ADR-RES) | GI50 (HOP-18) | GI50 (PC-3)
1 | CC1OC=CC(=O)C1O (centres undefined) | > 100 µM (inactive) | > 100 µM (inactive) | > 100 µM (inactive) | > 100 µM (inactive) | > 100 µM (inactive) | > 100 µM (inactive) | > 100 µM (inactive) | > 100 µM (inactive) | > 100 µM (inactive) | > 100 µM (inactive) | > 100 µM (inactive) | – | – | – | – | – | – | – | – | –
2 | O=C(O)/C=C/c1ccncc1 | > 100 µM (inactive) | > 100 µM (inactive) | > 100 µM (inactive) | – | 0.223 µM (active) | > 100 µM (inactive) | > 100 µM (inactive) | > 100 µM (inactive) | > 100 µM (inactive) | > 100 µM (inactive) | > 100 µM (inactive) | > 100 µM (inactive) | > 100 µM (inactive) | > 100 µM (inactive) | > 100 µM (inactive) | > 100 µM (inactive) | – | – | – | –
3 | CCOC(=O)/C=C/c1c[nH]c(=O)[nH]c1=O | > 75 µM (inactive) | – | – | > 75 µM (inactive) | > 49.1 µM (inactive) | > 75 µM (inactive) | – | – | > 75 µM (inactive) | – | > 75 µM (inactive) | > 75 µM (inactive) | > 75 µM (inactive) | > 75 µM (inactive) | > 75 µM (inactive) | > 75 µM (inactive) | > 75 µM (inactive) | > 75 µM (inactive) | > 75 µM (inactive) | –
4 | CCCCCCc1cn([C@H]2C[C@H](O)[C@@H](CO)O2)c(=O)[nH]c1=O | > 100 µM (inactive) | – | – | > 100 µM (inactive) | > 10 µM (inactive) | > 31.6 µM (inactive) | – | – | > 31.6 µM (inactive) | – | > 100 µM (inactive) | > 100 µM (inactive) | > 100 µM (inactive) | – | > 100 µM (inactive) | > 100 µM (inactive) | > 100 µM (inactive) | > 100 µM (inactive) | > 100 µM (inactive) | –
5 | O=c1oc2c(ccc3occc32)c(N2CCCCC2)c1-c1ccccc1 | > 100 µM (inactive) | – | – | > 93.3 µM (inactive) | > 100 µM (inactive) | 97.3 µM (inactive) | – | – | > 95.1 µM (inactive) | – | > 66.5 µM (inactive) | > 100 µM (inactive) | > 100 µM (inactive) | > 100 µM (inactive) | – | > 86.1 µM (inactive) | > 93.5 µM (inactive) | > 100 µM (inactive) | > 88.5 µM (inactive) | –
6 | Cc1ccc(C(=O)Nc2ccc(S(=O)(=O)O)c3cc(S(=O)(=O)O)cc(S(=O)(=O)O)c23)cc1NC(=S)Nc1cc(C(=O)Nc2ccc(S(=O)(=O)O)c3cc(S(=O)(=O)O)cc(S(=O)(=O)O)c23)ccc1C | – | > 75 µM (inactive) | – | > 75 µM (inactive) | > 75 µM (inactive) | – | > 75 µM (inactive) | > 75 µM (inactive) | > 75 µM (inactive) | > 75 µM (inactive) | – | – | > 75 µM (inactive) | – | > 75 µM (inactive) | – | > 75 µM (inactive) | – | – | > 75 µM (inactive)
7 | Cc1cc(O)c2c(c1)C(=O)c1cc(O)cc(O)c1C2=O [EMODIN] | – | 21.4 µM (inactive) | 24.4 µM (inactive) | 23 µM (inactive) | 14.4 µM (inactive) | 23.3 µM (inactive) | 39.4 µM (inactive) | 18.6 µM (inactive) | – | 23.4 µM (inactive) | 20.5 µM (inactive) | 19.8 µM (inactive) | 31.8 µM (inactive) | 19.8 µM (inactive) | 17.1 µM (inactive) | 41.2 µM (inactive) | – | – | 3.94 µM (inactive) | –
8 | O=C1OC(c2ccccc2)=N/C1=C/c1cccs1 | – | > 100 µM (inactive) | – | > 100 µM (inactive) | 48.5 µM (inactive) | > 100 µM (inactive) | > 100 µM (inactive) | > 100 µM (inactive) | – | 70 µM (inactive) | 56 µM (inactive) | – | 61.9 µM (inactive) | – | – | – | > 100 µM (inactive) | 38.3 µM (inactive) | – | > 100 µM (inactive)
